Laboratory results as given in the NIST ThermoML archive (doi:10.1016/j.jct.2011.11.021).
Numbers after ± are expanded uncertainties.

Experiment: activity coefficient (dimensionless); of the first substance listed, at infinite dilution; xn = mol fraction of the nth substance listed
Conditions: Liquid, Chromatography, x1 = 0

CC(C)O [propan-2-ol] + COCC[N+]1(C)CCOCC1.O=S(=O)([N-]S(=O)(=O)C(F)(F)F)C(F)(F)F
activity coefficient (318.15 K): 2.17 ± 0.15 | activity coefficient (328.15 K): 1.95 ± 0.13 | activity coefficient (338.15 K): 1.79 ± 0.12 | activity coefficient (348.15 K): 1.63 ± 0.11 | activity coefficient (358.15 K): 1.5 ± 0.1 | activity coefficient (368.15 K): 1.4 ± 0.09

CC(C)=O [acetone] + COCC[N+]1(C)CCOCC1.O=S(=O)([N-]S(=O)(=O)C(F)(F)F)C(F)(F)F
activity coefficient (318.15 K): 0.43 ± 0.035 | activity coefficient (328.15 K): 0.442 ± 0.036 | activity coefficient (338.15 K): 0.451 ± 0.036 | activity coefficient (348.15 K): 0.461 ± 0.036 | activity coefficient (358.15 K): 0.47 ± 0.037 | activity coefficient (368.15 K): 0.48 ± 0.037

CCC(C)O (configuration not stated) [butan-2-ol] + COCC[N+]1(C)CCOCC1.O=S(=O)([N-]S(=O)(=O)C(F)(F)F)C(F)(F)F
activity coefficient (318.15 K): 2.76 ± 0.19 | activity coefficient (328.15 K): 2.47 ± 0.17 | activity coefficient (338.15 K): 2.26 ± 0.15 | activity coefficient (348.15 K): 2.06 ± 0.14 | activity coefficient (358.15 K): 1.9 ± 0.13 | activity coefficient (368.15 K): 1.78 ± 0.12

C1CCCCCCC1 [cyclooctane] + COCC[N+]1(C)CCOCC1.O=S(=O)([N-]S(=O)(=O)C(F)(F)F)C(F)(F)F
activity coefficient (318.15 K): 36.6 ± 2.5 | activity coefficient (328.15 K): 32.6 ± 2.2 | activity coefficient (338.15 K): 29.6 ± 2 | activity coefficient (348.15 K): 26.7 ± 1.8 | activity coefficient (358.15 K): 24.2 ± 1.7 | activity coefficient (368.15 K): 22.1 ± 1.5

CCCC(C)=O [pentan-2-one] + COCC[N+]1(C)CCOCC1.O=S(=O)([N-]S(=O)(=O)C(F)(F)F)C(F)(F)F
activity coefficient (318.15 K): 0.88 ± 0.056 | activity coefficient (328.15 K): 0.89 ± 0.057 | activity coefficient (338.15 K): 0.9 ± 0.057 | activity coefficient (348.15 K): 0.91 ± 0.058 | activity coefficient (358.15 K): 0.918 ± 0.058 | activity coefficient (368.15 K): 0.925 ± 0.058

C=C(C)c1ccccc1 [(1-methylethenyl)benzene] + COCC[N+]1(C)CCOCC1.O=S(=O)([N-]S(=O)(=O)C(F)(F)F)C(F)(F)F
activity coefficient (328.15 K): 2.74 ± 0.19 | activity coefficient (338.15 K): 2.76 ± 0.19 | activity coefficient (348.15 K): 2.78 ± 0.19 | activity coefficient (358.15 K): 2.79 ± 0.19 | activity coefficient (368.15 K): 2.81 ± 0.19

C1CCCCC1 [cyclohexane] + COCC[N+]1(C)CCOCC1.O=S(=O)([N-]S(=O)(=O)C(F)(F)F)C(F)(F)F
activity coefficient (318.15 K): 18.8 ± 1.3 | activity coefficient (328.15 K): 17 ± 1.2 | activity coefficient (338.15 K): 15.6 ± 1.1 | activity coefficient (348.15 K): 14.4 ± 1 | activity coefficient (358.15 K): 13.3 ± 0.9 | activity coefficient (368.15 K): 12.3 ± 0.8

CCOCC [diethyl ether] + COCC[N+]1(C)CCOCC1.O=S(=O)([N-]S(=O)(=O)C(F)(F)F)C(F)(F)F
activity coefficient (318.15 K): 3.49 ± 0.24 | activity coefficient (328.15 K): 3.46 ± 0.24 | activity coefficient (338.15 K): 3.44 ± 0.23 | activity coefficient (348.15 K): 3.41 ± 0.23 | activity coefficient (358.15 K): 3.39 ± 0.23 | activity coefficient (368.15 K): 3.37 ± 0.23

CCCC(=O)OC [methyl butanoate] + COCC[N+]1(C)CCOCC1.O=S(=O)([N-]S(=O)(=O)C(F)(F)F)C(F)(F)F
activity coefficient (318.15 K): 1.42 ± 0.09 | activity coefficient (328.15 K): 1.44 ± 0.09 | activity coefficient (338.15 K): 1.45 ± 0.1 | activity coefficient (348.15 K): 1.45 ± 0.1 | activity coefficient (358.15 K): 1.46 ± 0.1 | activity coefficient (368.15 K): 1.48 ± 0.1

Cc1cccc(C)c1 [1,3-dimethylbenzene] + COCC[N+]1(C)CCOCC1.O=S(=O)([N-]S(=O)(=O)C(F)(F)F)C(F)(F)F
activity coefficient (318.15 K): 3.05 ± 0.21 | activity coefficient (328.15 K): 3.02 ± 0.21 | activity coefficient (338.15 K): 2.99 ± 0.2 | activity coefficient (348.15 K): 2.97 ± 0.2 | activity coefficient (358.15 K): 2.94 ± 0.2 | activity coefficient (368.15 K): 2.92 ± 0.2

C#CCCCCCC [1-octyne] + COCC[N+]1(C)CCOCC1.O=S(=O)([N-]S(=O)(=O)C(F)(F)F)C(F)(F)F
activity coefficient (318.15 K): 11.4 ± 0.8 | activity coefficient (328.15 K): 11 ± 0.8 | activity coefficient (338.15 K): 10.6 ± 0.7 | activity coefficient (348.15 K): 10.3 ± 0.7 | activity coefficient (358.15 K): 9.93 ± 0.68 | activity coefficient (368.15 K): 9.67 ± 0.66

C=CCCCCCCCC [1-decene] + COCC[N+]1(C)CCOCC1.O=S(=O)([N-]S(=O)(=O)C(F)(F)F)C(F)(F)F
activity coefficient (318.15 K): 87.8 ± 6 | activity coefficient (328.15 K): 78.8 ± 5.4 | activity coefficient (338.15 K): 72.1 ± 4.9 | activity coefficient (348.15 K): 65.7 ± 4.5 | activity coefficient (358.15 K): 59.4 ± 4.1 | activity coefficient (368.15 K): 54.9 ± 3.8

CCCOCCC [dipropyl ether] + COCC[N+]1(C)CCOCC1.O=S(=O)([N-]S(=O)(=O)C(F)(F)F)C(F)(F)F
activity coefficient (318.15 K): 10.7 ± 0.7 | activity coefficient (328.15 K): 10.3 ± 0.7 | activity coefficient (338.15 K): 9.92 ± 0.68 | activity coefficient (348.15 K): 9.56 ± 0.65 | activity coefficient (358.15 K): 9.2 ± 0.63 | activity coefficient (368.15 K): 8.97 ± 0.61

C=Cc1ccccc1 [styrene] + COCC[N+]1(C)CCOCC1.O=S(=O)([N-]S(=O)(=O)C(F)(F)F)C(F)(F)F
activity coefficient (318.15 K): 1.77 ± 0.12 | activity coefficient (328.15 K): 1.77 ± 0.12 | activity coefficient (338.15 K): 1.76 ± 0.12 | activity coefficient (348.15 K): 1.76 ± 0.12 | activity coefficient (358.15 K): 1.76 ± 0.12 | activity coefficient (368.15 K): 1.76 ± 0.12

CCc1ccccc1 [ethylbenzene] + COCC[N+]1(C)CCOCC1.O=S(=O)([N-]S(=O)(=O)C(F)(F)F)C(F)(F)F
activity coefficient (318.15 K): 3.27 ± 0.22 | activity coefficient (328.15 K): 3.21 ± 0.22 | activity coefficient (338.15 K): 3.16 ± 0.22 | activity coefficient (348.15 K): 3.1 ± 0.21 | activity coefficient (358.15 K): 3.04 ± 0.21 | activity coefficient (368.15 K): 2.99 ± 0.2

C=CCCCCCC [oct-1-ene] + COCC[N+]1(C)CCOCC1.O=S(=O)([N-]S(=O)(=O)C(F)(F)F)C(F)(F)F
activity coefficient (318.15 K): 38.6 ± 2.6 | activity coefficient (328.15 K): 34.9 ± 2.4 | activity coefficient (338.15 K): 32.5 ± 2.2 | activity coefficient (348.15 K): 30.1 ± 2.1 | activity coefficient (358.15 K): 27.5 ± 1.9 | activity coefficient (368.15 K): 25.9 ± 1.8

CC(C)OC(C)C [diisopropyl ether] + COCC[N+]1(C)CCOCC1.O=S(=O)([N-]S(=O)(=O)C(F)(F)F)C(F)(F)F
activity coefficient (318.15 K): 10.1 ± 0.7 | activity coefficient (328.15 K): 9.8 ± 0.67 | activity coefficient (338.15 K): 9.55 ± 0.65 | activity coefficient (348.15 K): 9.26 ± 0.63 | activity coefficient (358.15 K): 8.98 ± 0.61 | activity coefficient (368.15 K): 8.75 ± 0.6

C1CCCCCC1 [cycloheptane] + COCC[N+]1(C)CCOCC1.O=S(=O)([N-]S(=O)(=O)C(F)(F)F)C(F)(F)F
activity coefficient (318.15 K): 26.2 ± 1.8 | activity coefficient (328.15 K): 23.6 ± 1.6 | activity coefficient (338.15 K): 21.5 ± 1.5 | activity coefficient (348.15 K): 19.7 ± 1.3 | activity coefficient (358.15 K): 18.1 ± 1.2 | activity coefficient (368.15 K): 16.6 ± 1.1

c1ccncc1 [pyridine] + COCC[N+]1(C)CCOCC1.O=S(=O)([N-]S(=O)(=O)C(F)(F)F)C(F)(F)F
activity coefficient (318.15 K): 0.64 ± 0.044 | activity coefficient (328.15 K): 0.644 ± 0.044 | activity coefficient (338.15 K): 0.648 ± 0.044 | activity coefficient (348.15 K): 0.651 ± 0.045 | activity coefficient (358.15 K): 0.654 ± 0.045 | activity coefficient (368.15 K): 0.658 ± 0.045

CCCCO [butan-1-ol] + COCC[N+]1(C)CCOCC1.O=S(=O)([N-]S(=O)(=O)C(F)(F)F)C(F)(F)F
activity coefficient (318.15 K): 3.31 ± 0.23 | activity coefficient (328.15 K): 2.94 ± 0.2 | activity coefficient (338.15 K): 2.66 ± 0.18 | activity coefficient (348.15 K): 2.4 ± 0.16 | activity coefficient (358.15 K): 2.18 ± 0.15 | activity coefficient (368.15 K): 2.02 ± 0.14

c1ccsc1 [thiophene] + COCC[N+]1(C)CCOCC1.O=S(=O)([N-]S(=O)(=O)C(F)(F)F)C(F)(F)F
activity coefficient (318.15 K): 1.09 ± 0.07 | activity coefficient (328.15 K): 1.08 ± 0.07 | activity coefficient (338.15 K): 1.08 ± 0.07 | activity coefficient (348.15 K): 1.08 ± 0.07 | activity coefficient (358.15 K): 1.08 ± 0.07 | activity coefficient (368.15 K): 1.08 ± 0.07

C=CCCCCC [1-heptene] + COCC[N+]1(C)CCOCC1.O=S(=O)([N-]S(=O)(=O)C(F)(F)F)C(F)(F)F
activity coefficient (318.15 K): 24.9 ± 1.7 | activity coefficient (328.15 K): 23 ± 1.6 | activity coefficient (338.15 K): 21.7 ± 1.5 | activity coefficient (348.15 K): 20.3 ± 1.4 | activity coefficient (358.15 K): 19 ± 1.3 | activity coefficient (368.15 K): 18.1 ± 1.2

CCC(C)CC [3-methylpentane] + COCC[N+]1(C)CCOCC1.O=S(=O)([N-]S(=O)(=O)C(F)(F)F)C(F)(F)F
activity coefficient (318.15 K): 32.3 ± 2.2 | activity coefficient (328.15 K): 29 ± 2 | activity coefficient (338.15 K): 26.3 ± 1.8 | activity coefficient (348.15 K): 23.9 ± 1.6 | activity coefficient (358.15 K): 21.9 ± 1.5 | activity coefficient (368.15 K): 20.2 ± 1.4
